According to ChEMBL document CHEMBL1201862, “PubChem BioAssay data set” (2004):
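Protocol summary: plate cells (96-well), add compound at 5 concentrations, incubate 48 h, interpolate endpoints linearly. At the GI50, growth is halved.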 Calls of active or inactive are those of the source. Cut-off read from the data, not from the text of the source: active = GI50 up to about 1.1 µM and inactive = higher.

Legend:
Experiment in all cases: growth of human tumour cells (NCI), 48 h
NCI-H226 = tested on: NCI-H226
SF-295 = tested on: SF-295
OVCAR-5 = tested on: OVCAR-5
OVCAR-3 = tested on: OVCAR-3
HOP-62 = tested on: HOP-62
MDA-MB-435 = tested on: MDA-MB-435
SK-MEL-28 = tested on: SK-MEL-28
Hs-578T = tested on: Hs-578T
SN12C = tested on: SN12C
OVCAR-8 = tested on: OVCAR-8
MDA-N = tested on: MDA-N
PC-3 = tested on: PC-3
HCT-116 = tested on: HCT-116
HCC 2998 = tested on: HCC 2998
T47D = tested on: T47D
OVCAR-4 = tested on: OVCAR-4
RPMI-8226 = tested on: RPMI-8226
COLO 205 = tested on: COLO 205
A498 = tested on: A498
IGROV-1 = tested on: IGROV-1

| Structure (SMILES) | GI50 (NCI-H226) | GI50 (SF-295) | GI50 (OVCAR-5) | GI50 (OVCAR-3) | GI50 (HOP-62) | GI50 (MDA-MB-435) | GI50 (SK-MEL-28) | GI50 (Hs-578T) | GI50 (SN12C) | GI50 (OVCAR-8) | GI50 (MDA-N) | GI50 (PC-3) | GI50 (HCT-116) | GI50 (HCC 2998) | GI50 (T47D) | GI50 (OVCAR-4) | GI50 (RPMI-8226) | GI50 (COLO 205) | GI50 (A498) | GI50 (IGROV-1) |
| --- | --- | --- | --- | --- | --- | --- | --- | --- | --- | --- | --- | --- | --- | --- | --- | --- | --- | --- | --- | --- |
| Cc1ccc2c(c1)C1(C)OC(C=CC1=O)O2 (stereo not given) | 3.02 µM (inactive) | 2.79 µM (inactive) | 1.85 µM (inactive) | 0.344 µM (active) | 3.43 µM (inactive) | 0.182 µM (active) | 0.586 µM (active) | 2.9 µM (inactive) | 0.308 µM (active) | 0.282 µM (active) | 0.18 µM (active) | 0.499 µM (active) | 0.204 µM (active) | 2.84 µM (inactive) | 0.705 µM (active) | 0.774 µM (active) | 0.308 µM (active) | 0.384 µM (active) | 3.89 µM (inactive) | 2.18 µM (inactive) |
| C=C(CC[C@@H](C)[C@H]1CC[C@H]2[C@@H]3C[C@@H](O)[C@H]4C[C@@H](O)CC[C@]4(CO)[C@H]3CC[C@]12C)C(C)C | 9.29 µM (inactive) | 9.12 µM (inactive) | 6.68 µM (inactive) | 2.52 µM (inactive) | 7.57 µM (inactive) | 7.45 µM (inactive) | 4.1 µM (inactive) | 6.18 µM (inactive) | 6.11 µM (inactive) | 5.47 µM (inactive) | 8.49 µM (inactive) | 4.94 µM (inactive) | 2.9 µM (inactive) | 0.382 µM (active) | 1.79 µM (inactive) | 6.84 µM (inactive) | 5.08 µM (inactive) | 7.71 µM (inactive) | 6.62 µM (inactive) | 5.18 µM (inactive) |
| C[C@]12CCNC(=O)C=C1CC[C@@H]1C2CC[C@@]2(C)C1CC[C@@H]2OC(=O)COc1ccc(N(CCCl)CCCl)cc1 (stereo not given in full) | 13.1 µM (inactive) | 8.09 µM (inactive) | 12.6 µM (inactive) | 3.05 µM (inactive) | 2.84 µM (inactive) | 21.8 µM (inactive) | 17 µM (inactive) | 17.7 µM (inactive) | 4.65 µM (inactive) | 4.09 µM (inactive) | 13.3 µM (inactive) | > 10 µM (inactive) | 3.73 µM (inactive) | 3.84 µM (inactive) | 1.88 µM (inactive) | 6.11 µM (inactive) | 4.65 µM (inactive) | 9.08 µM (inactive) | 18.6 µM (inactive) | 13.1 µM (inactive) |
| CCOC(=O)C(NC(=O)CC(C)C)(NC(C)C)C(F)(F)F (stereo not given) | > 100 µM (inactive) | > 100 µM (inactive) | > 100 µM (inactive) | > 100 µM (inactive) | > 100 µM (inactive) | > 100 µM (inactive) | > 100 µM (inactive) | > 100 µM (inactive) | > 100 µM (inactive) | > 100 µM (inactive) | > 100 µM (inactive) | > 100 µM (inactive) | > 100 µM (inactive) | > 100 µM (inactive) | > 100 µM (inactive) | > 100 µM (inactive) | > 100 µM (inactive) | > 100 µM (inactive) | > 100 µM (inactive) | > 100 µM (inactive) |
| O=C(OCCN1CCCCC1)C(c1ccccc1)C1(O)CCSCC1 (stereo not given) | > 100 µM (inactive) | > 100 µM (inactive) | > 100 µM (inactive) | > 100 µM (inactive) | > 100 µM (inactive) | > 100 µM (inactive) | > 100 µM (inactive) | > 100 µM (inactive) | > 100 µM (inactive) | > 100 µM (inactive) | > 100 µM (inactive) | > 100 µM (inactive) | > 100 µM (inactive) | > 100 µM (inactive) | > 100 µM (inactive) | > 100 µM (inactive) | > 100 µM (inactive) | > 100 µM (inactive) | > 100 µM (inactive) | > 100 µM (inactive) |
| COc1ccc2c(c1)c1c3c(ccc4ncn2c43)N(CCO)CCN=1 | 0.182 µM (active) | 0.19 µM (active) | 0.245 µM (active) | 0.213 µM (active) | 0.132 µM (active) | 0.234 µM (active) | 0.327 µM (active) | 0.274 µM (active) | 0.158 µM (active) | 0.0927 µM (active) | 0.214 µM (active) | 0.148 µM (active) | 0.0512 µM (active) | 0.147 µM (active) | 0.263 µM (active) | 0.221 µM (active) | 0.281 µM (active) | 0.101 µM (active) | 0.215 µM (active) | 2.02 µM (inactive) |
| Clc1ccc(CCN2CCN(CCCc3ccccc3)CC2)cc1Cl | 20.1 µM (inactive) | 16.4 µM (inactive) | 16.2 µM (inactive) | 16.4 µM (inactive) | 18.5 µM (inactive) | 17.3 µM (inactive) | 18.7 µM (inactive) | 23.5 µM (inactive) | 16 µM (inactive) | 16.3 µM (inactive) | 16.9 µM (inactive) | 17.7 µM (inactive) | 15.1 µM (inactive) | 17 µM (inactive) | 17.2 µM (inactive) | 16.3 µM (inactive) | 20.9 µM (inactive) | 15.4 µM (inactive) | 15.8 µM (inactive) | 17 µM (inactive) |
